Assay results as given in patent publication US20060141546A1, “Bacterial test method by glycated label binding” (priority 2002, published 2006).

Columns and labels:
E. coli = assay: ALP binding to bacteria in presence of carbohydrates, polysaccharides, glycopeptides and lectins (Example 5, Table 3); settings: ALP 100 mUnits plus 15 μg of additive
Procedure: (§1) Bacterial cells (1 to 4.5×10^7 cells/mL) were washed twice with water after centrifugation to separate cells into a packed pellet from the supernatant liquid. The washed cells in pellet form were suspended in 20 μl of EPPS buffer (50 mM at pH 8.0) and 30 μL of water. Hemoglobin (20 μg) was added as a blocking additive. Alkaline phosphatase (ALP) (100 mUnits) from bovine intestine and 15 μg of simple carbohydrates or proteoglycan or lectins, were added.
(§2) The mixture of glycated protein and bacterial cells was left at 25° C. for 15 minutes. The mixture was then centrifuged at 30,000 rpm for 30 minutes after which the bacterial cells formed a pellet at the bottom of the tube and were washed with water 4-5 times (50 μL). Centrifugation allows separation of glycoprotein bound to the bacteria cells from unbound glycated protein(s).
(§3) After washing, the bacterial pellets were suspended in 50 μL of sodium tetraborate buffer (25 mM at pH 9.5). A 5 uL aliquot of the suspension was assayed for detection of ALP binding by adding 5 μL of para-nitrophenol phosphate (PNPP, 100 mM), 50 μL sodium borate buffer (25 mM at pH 9.0) and 140 μL of water. […] The color is read at 405 nm using a ELISA plate reader between 15-30 min and the absorbance is directly proportional to the amount of ALP bound to the bacteria cell adhesions for glycated groups.

S. faec. = assay: as above; settings: ALP 100 mUnits plus 15 μg of additive
Procedure: as §1, §2, §3

bacteria [1] = assay: ALP binding to bacteria in presence of carbohydrates, polysaccharides, glycopeptides and lectins (Example 5); settings: 15 μg additive with ALP
Procedure: as §1, §2, §3

bacteria [2] = assay: Effect of divalent cations on ALP binding to bacteria (Example 7, Table 5, FIG. 12)
Procedure: (§4) Bacterial cells (1 to 4.5×10^7 cells/mL) were washed twice with water after centrifugation to separate cells into a packed pellet from the supernatant liquid. The washed cells in pellet form were suspended in 20 μL of EPPS buffer (50 mM at pH 8.0) and 30 μL of water. […]
as §2
(§5) After washing, the bacterial pellets were suspended in 50 μL of borate buffer (25 mM at pH 9.0). A 5 μL aliquot of the suspension was assayed for detection of ALP binding by adding 5 μL of para-nitrophenol phosphate (PNPP, 100 mM), 50 μL sodium borate buffer (25 mM at pH 9.0) and 140 μL of water. […] The color was read at 405 nm using an ELISA plate reader between 15-30 min; the absorbance is directly proportional to the amount of ALP bound to the bacteria cell.

[3] = system: bacteria (both Staph and E. coli); assay: Cation effect on ALP binding, bound ALP assayed in glycine buffer pH 10.0 (Example 9, FIGS. 17-18); settings: binding at pH 8.0 in EPPS buffer, assay in glycine buffer pH 10.0, FIGS. 17-18
Procedure: The binding was conducted at pH 8.0 in EPPS buffer.

[4] = system: bacteria (Sf—Staph. faec.; Ec: E. coli); assay: Effect of various cations on ALP binding to bacteria (Example 8, FIGS. 13-14); settings: cations 2 mM, bovine intestinal mucosa ALP, FIG. 13
Procedure: as §4
The mixture of glycated protein and bacterial cells was left at 25° C. for 15 minutes. The mixture was then centrifuged at 30,000 rpm for 30 minutes after which the bacterial cells formed a pellet at the bottom of the tube and was washed with water 4-5 times (50 μL). Centrifugation allows separation of glycoprotein bound to the bacteria cells from unbound glycated protein(s).
as §5

S. faecalis strain = assay: Zinc concentration dependent ALP binding (Example 7, FIG. 11); settings: increasing concentration of zinc
Procedure: Bacterial cells (1 to 4.5×10^7 cells/mL) were washed twice with water after centrifugation to separate cells into a packed pellet from the supernatant liquid. The washed cells in pellet form were suspended in 20 μL of EPPS buffer (50 mM at pH 8.0) and 30 μL of water. Bovine intestinal alkaline phosphatase (ALP) (2 μg or […]) was added and 0.2 mM of several cations.
as §2
After washing, the bacterial pellets were suspended in 50 μL of borate buffer (25 mM at pH 9.0). […] The color was read at 405 nm using an ELISA plate reader between 15-30 min; the absorbance is directly proportional to the amount of ALP bound to the bacteria cell.
Concentration dependent binding study has been performed in the presence of increasing concentration of zinc with S. faecalis strain as shown in FIG. 11. […] The studies have been continued with different strains of bacteria in the presence of 1 mM Zn^2+ and the ALP binding could be monitored even at 10^5 bacteria concentration (FIG. 12).

bacteria [5] = assay: Bacteria assay by binding of ALP iso-forms (Example 4, FIG. 10); settings: for binding of ALP iso-forms to bacteria: 100 mUnits ALP, hemoglobin blocking
Procedure: Bacterial cells (1 to 4.5×10^7 cells/mL) were washed twice with water after centrifugation to separate cells into a packed pellet from the supernatant liquid. The washed cells in pellet form were suspended in 20 μL of EPPS buffer (50 mM at pH 8.0) and 30 μL of water. Hemoglobin (20 μg) was added as a blocking additive. Alkaline phosphatase (ALP) (100 mUnits) from intestine, placenta, and bacteria sources were added.
as §2
After washing, the bacterial pellets were suspended in 50 μl of sodium tetraborate buffer (25 mM at pH 9.5). A 5 μL aliquot of the suspension was assayed for detection of ALP binding by adding 5 μL of para-nitrophenol phosphate (PNPP, 100 mM), 50 μL sodium borate buffer (25 mM at pH 9.0) and 140 μL of water. […] The color is read at 405 nm using an ELISA plate reader between 15-30 min and the absorbance is directly proportional to the amount of ALP bound to the bacteria-cell adhesions for glycated groups. The results are illustrated in FIG. 10.

[6] = buffers for ALP determinations; cited from earlier work
[7] = ALP activity of different sources in glycine buffer (Example 9, FIGS. 15-16); format: biochemical; settings: assayed in glycine buffer

Molecule: OC[C@H]1O[C@@H](O)[C@H](O)[C@@H](O)[C@@H]1O [Glucose, β-D-Glucose]
- absorbance (405 nm) of ALP bound to bacteria (E. coli): 1.8
- absorbance (405 nm) of ALP bound to bacteria (S. faec.): 2.4
- effect on bacteria binding of ALP (in words) (bacteria [1]): did not produce any effect

Molecule: Lipopolysaccharide
- absorbance (405 nm) of ALP bound to bacteria (E. coli): 1.8
- absorbance (405 nm) of ALP bound to bacteria (S. faec.): 2.0
- effect on bacteria binding of ALP (in words) (bacteria [1]): without any effect

Molecule: [Cl-].[Cl-].[Zn+2] [ZnCl2]
- effect of cation on binding of ALP to the bacteria (in words) (bacteria [2]; 0.2 mM): significantly higher binding of ALP
- O.D. at 405 nm, With ALP (bacteria [2]; bacteria plus cation (CaCl2 1 mM, MgCl2 1 mM, ZnCl2 0.2 mM) with ALP): 0.53 O.D.
- O.D. at 405 nm, No ALP (bacteria [2]; bacteria plus cation (CaCl2 1 mM, MgCl2 1 mM, ZnCl2 0.2 mM), no ALP): 0.23 O.D.
- cation effectiveness for binding of ALP to the bacteria [3]: best metal
- effect of various cations on ALP-binding (in words) [4]: stimulate ALP-binding
- zinc concentration at which optimum binding occurs (S. faecalis strain): 1 mM

Molecule: bacterial ALP: Alkaline phosphatase from bacteria sources; lacks glycophospholipid
- binding of ALP iso-forms to bacteria (bacteria [5]): binds bacteria

Molecule: OCCNCCO [diethanolamine]
- pKa [6]: 8.7

Molecule: CCC1(CC)C(=O)NC(=O)NC1=O [barbital]
- pKa [6]: 7.44

Molecule: Lipoteichoic acid
- absorbance (405 nm) of ALP bound to bacteria (E. coli): 0.2
- absorbance (405 nm) of ALP bound to bacteria (S. faec.): 0.2
- effect on bacteria binding of ALP (in words) (bacteria [1]): strongly inhibits

Molecule: CC(C)(N)CO [2-amino-2-methyl-1-propanol]
- pKa [6]: 9.3

Molecule: CC(N)(CO)CO [2-amino-2-methyl-1,3-propanediol]
- pKa [6]: 8.6

B1: placenta ALP: Alkaline phosphatase from placenta (protein, UniProt P05187 23-506, looked up)
Alkaline phosphatase, …: IIPVEEENPDFWNREAAEALGAAKKLQPAQTAAKNLIIFLGDGMGVSTVTAARILKGQKKDKLGPEIPLAMDRFPYVALSKTYNVDKHVPDSGATATAYLCGVKGNFQTIGLSAAARFNQCNTTRGNEVISVMNRAKKAGKSVGVVTTTRVQHASPAGTYAHTVNRNWYSDADVPASARQEGCQDIATQLISNMDIDVILGGGRKYMFRMGTPDPEYPDDYSQGGTRLDGKNLVQEWLAKRQGARYVWNRTELMQASLDPSVTHLMGLFEPGDMKYEIHRDSTLDPSLMEMTEAALRLLSRNPRGFFLFVEGGRIDHGHHESRAYRALTETIMFDDAIERAGQLTSEEDTLSLVTADHSHVFSFGGYPLRGSSIFGLAPGKARDRKAYTVLLYGNGPGYVLKDGARPDVTESESGSPEYRQQSAVPLDEETHAGEDVAVFARGPQAHLVHGVQEQTFIAHVMAFAACLEPYTACDLAPPAGTTD
- binding of ALP iso-forms to bacteria (bacteria [5]): lowest binding to bacteria
- enzyme activity of ALP iso-forms (bacteria [5]; PNPP): lowest enzyme activity
- ALP activity compared with other sources [7]: comparable to ALP from other sources
